From patent publication US20250205344A1, “2,4-DIOXOTETRAHYDROPYRIMIDINYL DERATIVES AS DEGRONS IN PROTACS” (GLAXOSMITHKLINE INTELLECTUAL PROPERTY DEVELOPMENT LIMITED, priority 2022, published 2025)
Counter-ions that a name gives are not always drawn.

Each molecule was assayed against T1, Androgen Receptor (Homo sapiens, UniProt P10275, T878A) (assay: Androgen Receptor Degradation Assay (Nano-Glo HiBiT)). Conditions: HiBiT-tagged AR in human LnCaP cells, 18 h.
T1 construct: the AR gene was modified, using CRISPR/Cas9 editing, so the expressed AR protein included an 11 amino acid HiBiT tag; endogenous in cells; host or cells: clonal LnCaP-derived line, AR gene edited by CRISPR/Cas9
T1 sequence (P10275 whole entry T878A): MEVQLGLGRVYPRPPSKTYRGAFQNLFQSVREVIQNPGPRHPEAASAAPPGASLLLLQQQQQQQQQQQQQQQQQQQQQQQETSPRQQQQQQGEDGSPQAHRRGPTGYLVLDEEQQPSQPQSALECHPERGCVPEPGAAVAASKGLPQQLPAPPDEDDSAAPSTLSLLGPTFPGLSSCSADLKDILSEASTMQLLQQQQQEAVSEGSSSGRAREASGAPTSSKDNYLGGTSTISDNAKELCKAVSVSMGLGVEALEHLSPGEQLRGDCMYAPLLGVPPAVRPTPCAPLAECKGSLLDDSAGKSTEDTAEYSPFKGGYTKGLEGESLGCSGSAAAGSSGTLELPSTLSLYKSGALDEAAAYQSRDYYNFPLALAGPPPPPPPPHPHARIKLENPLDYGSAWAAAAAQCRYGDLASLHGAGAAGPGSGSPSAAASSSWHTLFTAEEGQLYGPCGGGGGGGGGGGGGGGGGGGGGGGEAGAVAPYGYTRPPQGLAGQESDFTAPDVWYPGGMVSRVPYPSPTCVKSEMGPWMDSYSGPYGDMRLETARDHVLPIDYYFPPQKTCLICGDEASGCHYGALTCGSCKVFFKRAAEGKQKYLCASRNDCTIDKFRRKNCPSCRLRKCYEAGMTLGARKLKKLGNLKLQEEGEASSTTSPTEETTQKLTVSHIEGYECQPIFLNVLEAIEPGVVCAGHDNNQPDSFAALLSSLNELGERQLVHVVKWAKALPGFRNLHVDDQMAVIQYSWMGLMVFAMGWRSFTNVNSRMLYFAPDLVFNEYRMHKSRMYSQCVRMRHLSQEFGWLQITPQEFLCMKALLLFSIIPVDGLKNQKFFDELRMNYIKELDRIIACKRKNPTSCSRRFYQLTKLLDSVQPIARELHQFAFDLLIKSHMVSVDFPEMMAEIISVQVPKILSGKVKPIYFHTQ
T1 sequence (Q96SW2 whole entry partner): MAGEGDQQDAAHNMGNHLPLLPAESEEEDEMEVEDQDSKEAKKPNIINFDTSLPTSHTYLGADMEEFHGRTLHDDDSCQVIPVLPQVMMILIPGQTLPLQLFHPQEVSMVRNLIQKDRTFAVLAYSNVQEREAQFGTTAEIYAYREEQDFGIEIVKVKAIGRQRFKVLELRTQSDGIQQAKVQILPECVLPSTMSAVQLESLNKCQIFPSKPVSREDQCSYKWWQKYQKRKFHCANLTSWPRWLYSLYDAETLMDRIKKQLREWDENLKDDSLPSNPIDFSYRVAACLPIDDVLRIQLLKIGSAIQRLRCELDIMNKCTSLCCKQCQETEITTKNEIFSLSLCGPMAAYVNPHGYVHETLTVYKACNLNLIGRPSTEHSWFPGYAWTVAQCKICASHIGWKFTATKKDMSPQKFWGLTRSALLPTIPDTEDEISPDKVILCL
T1 sequence (Q16531 whole entry partner): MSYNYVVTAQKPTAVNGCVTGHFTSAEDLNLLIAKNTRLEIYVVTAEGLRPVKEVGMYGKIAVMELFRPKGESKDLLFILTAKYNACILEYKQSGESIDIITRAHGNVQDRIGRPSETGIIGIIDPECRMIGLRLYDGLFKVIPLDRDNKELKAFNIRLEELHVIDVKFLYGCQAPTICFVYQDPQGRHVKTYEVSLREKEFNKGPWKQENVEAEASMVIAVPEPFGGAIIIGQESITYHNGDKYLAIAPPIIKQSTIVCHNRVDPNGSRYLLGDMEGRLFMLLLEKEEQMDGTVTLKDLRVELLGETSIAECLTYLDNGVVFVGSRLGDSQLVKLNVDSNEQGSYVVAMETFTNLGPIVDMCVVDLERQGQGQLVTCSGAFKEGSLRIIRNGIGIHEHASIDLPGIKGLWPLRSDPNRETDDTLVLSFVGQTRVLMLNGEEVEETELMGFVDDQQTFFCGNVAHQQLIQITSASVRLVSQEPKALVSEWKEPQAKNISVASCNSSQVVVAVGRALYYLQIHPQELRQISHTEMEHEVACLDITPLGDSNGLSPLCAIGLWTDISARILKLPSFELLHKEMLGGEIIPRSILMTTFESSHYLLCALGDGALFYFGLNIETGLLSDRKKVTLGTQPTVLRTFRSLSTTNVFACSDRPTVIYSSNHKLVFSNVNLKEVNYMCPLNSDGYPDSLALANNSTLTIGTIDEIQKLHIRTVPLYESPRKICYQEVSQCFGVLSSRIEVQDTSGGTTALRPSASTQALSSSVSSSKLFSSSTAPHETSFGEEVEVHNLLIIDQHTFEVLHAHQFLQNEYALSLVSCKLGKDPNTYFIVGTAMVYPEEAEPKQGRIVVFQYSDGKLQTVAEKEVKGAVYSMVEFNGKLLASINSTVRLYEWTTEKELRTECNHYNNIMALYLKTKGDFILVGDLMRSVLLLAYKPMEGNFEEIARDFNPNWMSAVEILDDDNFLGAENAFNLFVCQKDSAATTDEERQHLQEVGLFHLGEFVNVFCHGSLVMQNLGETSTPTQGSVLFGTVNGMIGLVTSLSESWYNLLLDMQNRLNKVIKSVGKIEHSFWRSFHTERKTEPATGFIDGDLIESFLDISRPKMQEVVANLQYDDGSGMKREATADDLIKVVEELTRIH
Type: cell-based
Procedure, shortened: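 LnCaP cells with CRISPR-knocked-in N-terminal HiBiT-tagged AR (10,000/well) treated 18 h at 37 °C with PROTACs over 11 threefold concentrations; lytic HiBiT luminescence normalised to DMSO (0%) and cell-free (100%) controls. Relative DC50 = 4-parameter fit inflection; absolute DC50 = 50% degradation interpolation; Dmax = maximum observed degradation.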
In the case of `CC(C)n1ccc2c(N3CCC(=O)NC3=O)cc(C(=O)N3CCN(CCC4CCN(c5ccc(NC(=O)N6C[C@H](C)N(c7ccc(C#N)c(Cl)c7)C[C@H]6C)cn5)CC4)CC3)cc21` [EAR 118, (2R,5S)-4-(3-Chloro-4-cyanophenyl)-N-(6-(4-(2-(4-(4-(2,4-dioxotetrahydropyrimidin-1(2H)-yl)-1-isopropyl-1H-indole-6-carbonyl)piperazin-1-yl)ethyl)piperidin-1-yl)pyridin-3-yl)-2,5-dimethylpiperazine-1-carboxamide], the “mean relative pDC50” value is reported as 5.72.

Same assay, conditions: LNCaP, 18 h, HiBiT-tagged AR in human LnCaP cells, read-out: mean asymptote max
In the case of `N#Cc1ccc(O[C@H]2CC[C@H](NC(=O)c3ccc(N4CCC(CN5CCC(n6ccc7c(N8CCC(=O)NC8=O)cccc76)CC5)CC4)nn3)CC2)cc1C(F)(F)F` [EAR24, N-((1r,4r)-4-(4-Cyano-3-(trifluoromethyl)phenoxy)cyclohexyl)-6-(4-((4-(4-(2,4-dioxotetrahydropyrimidin-1(2H)-yl)-1H-indol-1-yl)piperidin-1-yl)methyl)piperidin-1-yl)pyridazine-3-carboxamide], the Dmax is reported as no less than 50%.
`N#Cc1ccc(O[C@H]2CC[C@H](NC(=O)c3ccc(N4CCC(CN5CCC(n6ncc7c(N8CCC(=O)NC8=O)cc(Cl)cc76)CC5)CC4)nn3)CC2)cc1Cl` [EAR34, 6-(4-((4-(6-Chloro-4-(2,4-dioxotetrahydropyrimidin-1(2H)-yl)-1H-indazol-1-yl)piperidin-1-yl)methyl)piperidin-1-yl)-N-((1r,4r)-4-(3-chloro-4-cyanophenoxy)cyclohexyl)pyridazine-3-carboxamide hydrochloride] was tested, and the Dmax was no less than 50%.
In the case of `C[C@@H]1CN(c2ccc(C#N)c(Cl)c2)[C@@H](C)CN1C(=O)c1cnc(N2CCC(CN3CCC(n4ccc5c(N6CCC(=O)NC6=O)cncc54)CC3)CC2)cn1` [EAR147, 2-Chloro-4-((2S,5R)-4-(5-(4-((4-(4-(2,4-dioxotetrahydropyrimidin-1(2H)-yl)-1H-pyrrolo[2,3-c]pyridin-1-yl)piperidin-1-yl)methyl)piperidin-1-yl)pyrazine-2-carbonyl)-2,5-dimethylpiperazin-1-yl)benzonitrile], the Dmax is reported as no less than 50%.
`C[C@@H]1CN(c2ccc(C#N)c(Cl)c2)[C@@H](C)CN1C(=O)c1cnc(N2CCC(CN3CCC(n4ncc5c(N6CCC(=O)NC6=O)cncc54)CC3)CC2)cn1` [EAR150, 2-Chloro-4-((2S,5R)-4-(5-(4-((4-(4-(2,4-dioxotetrahydropyrimidin-1(2H)-yl)-1H-pyrazolo[3,4-c]pyridin-1-yl)piperidin-1-yl)methyl)piperidin-1-yl)pyrazine-2-carbonyl)-2,5-dimethylpiperazin-1-yl)benzonitrile] was tested, and the Dmax was no less than 50%.
Molecule `N#Cc1ccc(O[C@H]2CC[C@H](NC(=O)c3ccc(N4CCC(CN5CCC(n6ncc7c(N8CCC(=O)NC8=O)cccc76)CC5)CC4)nc3)CC2)cc1Cl` [EAR42, N-((1r,4r)-4-(3-Chloro-4-cyanophenoxy)cyclohexyl)-6-(4-((4-(4-(2,4-dioxotetrahydropyrimidin-1(2H)-yl)-1H-indazol-1-yl)piperidin-1-yl)methyl)piperidin-1-yl)nicotinamide hydrochloride] has a Dmax of no less than 50%.
In the case of `N#Cc1ccc(O[C@H]2CC[C@H](NC(=O)c3ccc(N4CCC(CN5CC[C@@H](n6ccc7c(N8CCC(=O)NC8=O)cccc76)C5)CC4)nn3)CC2)cc1Cl` [EAR172, N-((1r,4r)-4-(3-Chloro-4-cyanophenoxy)cyclohexyl)-6-(4-(((S)-3-(4-(2,4-dioxotetrahydropyrimidin-1(2H)-yl)-1H-indol-1-yl)pyrrolidin-1-yl)methyl)piperidin-1-yl)pyridazine-3-carboxamide, hydrochloride], the Dmax is reported as no less than 50%.
In the case of `N#Cc1ccc(O[C@H]2CC[C@H](NC(=O)c3ccc(OC4CN(C(=O)CN5CCC(n6ccc7c(N8CCC(=O)NC8=O)cccc76)CC5)C4)nn3)CC2)cc1Cl` [EAR178, N-((1r,4r)-4-(3-Chloro-4-cyanophenoxy)cyclohexyl)-6-((1-(2-(4-(4-(2,4-dioxotetrahydropyrimidin-1(2H)-yl)-1H-indol-1-yl)piperidin-1-yl)acetyl)azetidin-3-yl)oxy)pyridazine-3-carboxamide], the Dmax is reported as no less than 50%.
`N#Cc1ccc(O[C@H]2CC[C@H](NC(=O)c3ccc(N4CCN(CC(=O)N5CCC(n6ccc7c(N8CCC(=O)NC8=O)cccc76)CC5)CC4)nn3)CC2)cc1Cl` [EAR134, N-((1r,4r)-4-(3-Chloro-4-cyanophenoxy)cyclohexyl)-6-(4-(2-(4-(4-(2,4-dioxotetrahydropyrimidin-1(2H)-yl)-1H-indol-1-yl)piperidin-1-yl)-2-oxoethyl)piperazin-1-yl)pyridazine-3-carboxamide] showed a Dmax of no less than 50%.
`N#Cc1ccc(O[C@H]2CC[C@H](NC(=O)c3cnc(N4CCC(C(=O)N5CCC(n6ccc7c(N8CCC(=O)NC8=O)cccc76)CC5)CC4)nc3)CC2)cc1C(F)(F)F` [EAR68, N-((1r,4r)-4-(4-Cyano-3-(trifluoromethyl)phenoxy)cyclohexyl)-2-(4-(4-(4-(2,4-dioxotetrahydropyrimidin-1(2H)-yl)-1H-indol-1-yl)piperidine-1-carbonyl)piperidin-1-yl)pyrimidine-5-carboxamide] showed a Dmax of no less than 50%.
For `N#Cc1ccc(O[C@H]2CC[C@H](NC(=O)c3ccc(N4C[C@@H]5[C@H](CN6CCC(n7ncc8c(N9CCC(=O)NC9=O)cccc87)CC6)[C@@H]5C4)nn3)CC2)cc1Cl` [EAR235, N-((1r,4R)-4-(3-chloro-4-cyanophenoxy)cyclohexyl)-6-((1R,5S,6R)-6-((4-(4-(2,4-dioxotetrahydropyrimidin-1(2H)-yl)-1H-indazol-1-yl)piperidin-1-yl)methyl)-3-azabicyclo[3.1.0]hexan-3-yl)pyridazine-3-carboxamide], the Dmax was no less than 50%.
Work on `N#Cc1ccc(O[C@H]2CC[C@H](NC(=O)c3cnc(N4CCC(CN5CCC(n6ncc7c(N8CCC(=O)NC8=O)cc(F)cc76)CC5)CC4)nc3)CC2)cc1Cl` [AR205, N-((1r,4r)-4-(3-Chloro-4-cyanophenoxy)cyclohexyl)-2-(4-((4-(4-(2,4-dioxotetrahydropyrimidin-1(2H)-yl)-6-fluoro-1H-indazol-1-yl)piperidin-1-yl)methyl)piperidin-1-yl)pyrimidine-5-carboxamide] yielded a Dmax of no less than 50%.
Work on `CC1(C)[C@H](NC(=O)c2ccc(N3CCC(CN4CCC(n5ccc6c(N7CCC(=O)NC7=O)cncc65)CC4)CC3)nc2)C(C)(C)[C@H]1Oc1ccc(C#N)c(Cl)c1` [EAR20, N-((1r,3r)-3-(3-Chloro-4-cyanophenoxy)-2,2,4,4-tetramethylcyclobutyl)-6-(4-((4-(4-(2,4-dioxotetrahydropyrimidin-1(2H)-yl)-1H-pyrrolo[2,3-c]pyridin-1-yl)piperidin-1-yl)methyl)piperidin-1-yl)nicotinamide] yielded a Dmax of no less than 50%.
With `C[C@@H]1CN(c2ccc(C#N)c(Cl)c2)[C@@H](C)CN1C(=O)Nc1ccc(OCCCCN2CCC(n3ccc4c(N5CCC(=O)NC5=O)cccc43)CC2)nc1` [EAR109, (2R,5S)-4-(3-Chloro-4-cyanophenyl)-N-(6-(4-(4-(4-(2,4-dioxotetrahydropyrimidin-1(2H)-yl)-1H-indol-1-yl)piperidin-1-yl)butoxy)pyridin-3-yl)-2,5-dimethylpiperazine-1-carboxamide] the Dmax was no less than 50%.
In the case of `N#Cc1ccc(O[C@H]2CC[C@H](NC(=O)c3cnc(N4CCC(CN5CCC(n6ncc7c(N8CCC(=O)NC8=O)cncc76)CC5)CC4)nc3)CC2)cc1Cl` [AR216, N-((1r,4r)-4-(3-chloro-4-cyanophenoxy)cyclohexyl)-2-(4-((4-(4-(2,4-dioxotetrahydropyrimidin-1(2H)-yl)-1H-pyrazolo[3,4-c]pyridin-1-yl)piperidin-1-yl)methyl)piperidin-1-yl)pyrimidine-5-carboxamide], the Dmax is reported as no less than 50%.
`CC(C)n1ccc2c(N3CCC(=O)NC3=O)cc(C(=O)N3CCN(CCC4CCN(c5ccc(NC(=O)N6C[C@H](C)N(c7ccc(C#N)c(Cl)c7)C[C@H]6C)cn5)CC4)CC3)cc21` [EAR 118, (2R,5S)-4-(3-Chloro-4-cyanophenyl)-N-(6-(4-(2-(4-(4-(2,4-dioxotetrahydropyrimidin-1(2H)-yl)-1-isopropyl-1H-indole-6-carbonyl)piperazin-1-yl)ethyl)piperidin-1-yl)pyridin-3-yl)-2,5-dimethylpiperazine-1-carboxamide] showed a Dmax of no less than 50%.
In the case of `CN(c1ccc(C#N)c(Cl)c1)[C@H]1CC[C@H](NC(=O)c2ccc(N3CCC(CN4CCC(n5ccc6c(N7CCC(=O)NC7=O)ncnc65)CC4)CC3)nn2)CC1` [EAR214, N-((1r,4r)-4-((3-Chloro-4-cyanophenyl)(methyl)amino)cyclohexyl)-6-(4-((4-(4-(2,4-dioxotetrahydropyrimidin-1(2H)-yl)-7H-pyrrolo[2,3-d]pyrimidin-7-yl)piperidin-1-yl)methyl)piperidin-1-yl)pyridazine-3-carboxamide hydrochloride], the Dmax is reported as no less than 50%.
For `N#Cc1ccc(O[C@H]2CC[C@H](NC(=O)c3ccc(N4CCC(CN5CCC(n6ccc7c(N8CCC(=O)NC8=O)nccc76)CC5)CC4)nn3)CC2)cc1C(F)(F)F` [EAR204, N-((1r,4r)-4-(4-Cyano-3-(trifluoromethyl)phenoxy)cyclohexyl)-6-(4-((4-(4-(2,4-dioxotetrahydropyrimidin-1(2H)-yl)-1H-pyrrolo[3,2-c]pyridin-1-yl)piperidin-1-yl)methyl)piperidin-1-yl)pyridazine-3-carboxamide], the Dmax was no less than 50%.
With `N#Cc1ccc(O[C@H]2CC[C@H](NC(=O)c3cnc(N4CCC(CN5CCC(n6ncc7c(N8CCC(=O)NC8=O)cccc76)CC5)CC4)cn3)CC2)cc1C(F)(F)F` [EAR38, N-((1r,4r)-4-(4-Cyano-3-(trifluoromethyl)phenoxy)cyclohexyl)-5-(4-((4-(4-(2,4-dioxotetrahydropyrimidin-1(2H)-yl)-1H-indazol-1-yl)piperidin-1-yl)methyl)piperidin-1-yl)pyrazine-2-carboxamide hydrochloride] the Dmax was no less than 50%.
Molecule `N#Cc1ccc(O[C@H]2CC[C@H](NC(=O)c3ccc(N4CCC(CN5CCC(n6ccc7c(N8CCC(=O)NC8=O)cccc76)CC5)CC4)c(F)c3)CC2)cc1Cl` [EAR206, N-((1r,4r)-4-(3-Chloro-4-cyanophenoxy)cyclohexyl)-4-(4-((4-(4-(2,4-dioxotetrahydropyrimidin-1(2H)-yl)-1H-indol-1-yl)piperidin-1-yl)methyl)piperidin-1-yl)-3-fluorobenzamide] has a Dmax of no less than 50%.
